Test results: patent publication US6664231B1, “Anti-fungal peptides” (priority 1993, dated 2003)
Read-outs that look alike come from different tables or passages of the source.

Tests used:
[1] = test system: Trychophyton rubrum ATCC 28188; assay: organism not typed; type: cell-based
Description: The anti-fungal activity of Domain III derived peptides was evaluated against a variety of fungal species, including species of Candida. Cryptococcus, Fusarium, Trichophyton, and Aspergillus, by an additional assay protocol utilizing Alamar Blue. Alamar Blue is an indicator dye formulated to measure quantitatively the proliferation of a variety of human or animal cells, bacteria, or fungi. It consists of an oxidation-reduction (REDOX) indicator that yields a colorimetric change in response to metabolic activity. For these experiments, species of Candida and Cryptococcus were grown in Sabouraud's dextrose broth (SDB) overnight. Strains of filamentous fungi (Aspergilius, Fusanum, Trichophyton) were obtained by irrigation of a confluent culture from a petri dish. Cells were washed and adjusted to a concentration of 5.0×10^3/mL in fresh SDB. […] Controls included amphotericin B, fluconazole, ketoconazole and griseofulvin. Antifungal drugs were also diluted in the same manner. Assays were performed in 96-well microuiter plates. […] The wells to be plated were determined by OD590 readings. The lowest concentration of peptide which maintained the blue color (or OD reading) of the blank was chosen along with the next two higher concentrations. Plates were allowed to grow for 18-48 hours depending on the rate of growth of each fungus. Minimal fungicidal activity (MFC) was determined as a 99.9% killing of the starting inoculum.

Candida albicans SLU-1 = assay: Survival of cyclosporin A-immunosuppressed mice systemically infected with Candida albicans; type: in vivo, mouse; conditions: cyclosporin A 10 mg/kg i.p.; 2×10^5 Candida cells; peptide 10 mg/kg, 6 doses; FIG. 7
Description: Studies were also performed to determine the effectiveness of representative anti-fungal peptides in cyclosporin A-immunosuppressed mice systemically infected with Candida albicans SLU-1. Groups (15 animals/group) of 9 week-old male DBA/2J mice were immunosuppressed by pretreatment with 10 mg/kg (Day-1) of cyclosporin A administered by intraperitoneal injection. One day later (Day 0), the mice were inoculated with 2×10^5 Candida cells by intravenous injection in the tail vein. Immediately after fungal challenge, the mice were treated with a 0.1 mL volume of 10 mg/kg XMP.284, 10 mg/kg XMP.127, or PBS as a control. Cyclosporin A injections were repeated at Day 1. Day 3. Day 7, and Day 9. XMP.284, XMP.127 or PBS injections were repeated at Day 2, Day 4, Day 6, Day 8 and Day 10. […]. […] However.

[2] = test system: C. albicans (SLU-1 and other strains); type: cell-based, Candida albicans
Description: (§1) In additional experiments, a fluorescence-activated cell sorter (FACS) based assay was developed to test the fungicidal activity of the peptides. […] Difco) agar. Several colonies were picked from the agar plate and inoculated into 5 mL of Sabouraud's Dextrose media in a sterile 10 mL polypropylene tube. The fungal cultures were incubated for about 18 hours at 30° C. […] The culture were centrifuged at 3000 rpm for 5 minutes (Sorvall RT 6000B). After centrifugation, the supernatant was decanted leaving the fungal pellets in the centrifuge tubes. The pellets were resuspended in 15 mL of SDB. Both suspensions were combined into one tube and mixed to generate a stock culture. […] After determining the concentration of the stock, appropriate dilutions were made with Sabouraud's Dextrose media to obtain 100 mL of 1×10^6 cell/mL. […] After the 1 hour incubation, all the tubes were centrifuged at 3000 rpm for 5 minutes. […] Louis, Mo.) in Dulbecco's PBS (DPBS, GIBCO, Grand Island, N.Y.) except the autofluorescence control, which was resuspended in DPBS alone. The tubes were mixed and incubated in the dark at room temperature for at least 20 minutes. […] The settings were adjusted appropriately to the following approximate parameters: Cells were analyzed (10,000 cells/tube) and their respective fluorescence determined. […] The population of dead (i.e., propidium iodide stained) fungal cells was determined by a fluorescence threshold between the negative control and positive control.

[3] = test system: Candida albicans (SLU-1 and ATCC strains); assay: microbe, parasite or virus in culture; type: cell-based
Method in brief: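 Peptides were serially diluted against fungi suspended at 5.0×10^3/mL in Sabouraud's dextrose broth. Metabolic activity was followed with the REDOX indicator Alamar Blue, and the lowest concentration keeping blank-level blue color, together with the next two higher, was plated for 18-48 hours to find the MFC (99.9% kill).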

Candida albicans = assay: Radial diffusion assay, Candida species (Table 2); type: cell-based; conditions: higher effective concentration of agarose than Table 1
[4] = test system: Candida albicans SLU-1 strain; assay: Serum stability, anti-fungal activity after serum incubation by radial diffusion bioassay; type: in vitro ADME, rat or human serum
Method in brief: (§2)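 Peptide at 1 mg/mL mixed with an equal volume of rat or human serum and held at 37° C. Samples taken at 0, 1, 2 and 4 h, extracted on C-18 solid phase, then analysed by HPLC, N-terminal sequencing and ESI/MS. Recovered peptides tested against C. albicans SLU-1 by radial diffusion.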

[5] = as above; type: in vitro ADME, rat or human serum; conditions: Activity in Serum t ½ (hr.)
Method in brief: as §2

[6] = test system: Crytococcus Neoformans 13690; type: cell-based, Cryptococcus neoformans
Description: as §1, with “alone.” for “alone. The tubes were mixed and incubated in the dark at room temperature for at least 20 minutes.”

With `C[C@@H]1[C@H](O)[C@@H](C)/C=C/C=C/C=C/C=C/C=C/C=C/C=C/[C@H](O[C@@H]2O[C@H](C)[C@@H](O)[C@H](N)[C@@H]2O)C[C@@H]2O[C@](O)(C[C@@H](O)C[C@@H](O)[C@H](O)CC[C@@H](O)C[C@@H](O)CC(=O)O[C@H]1C)C[C@H](O)[C@H]2C(=O)O` [Amphotericin B, amphotericin B, reference compound] the “Minimum Fungicidal Concentration, Trychophyton rubrum ATCC 28188” value [1] was 0.32 µg/mL, the “protection against infection, survival compared with PBS controls” value (Candida albicans SLU-1) was “protected” and the “Activity of peptides on C. albicans SLU-1, IC50” value ([2]; Table 5, percentage of dead cells, 1 hour, 30° C.) was 79.36 µg/mL. For the same molecule, the “Minimum Fungicidal Concentration, Candida albicans ATCC 10231” value ([3]; strain ATCC 10231) was 0.63 µg/mL, the “Minimum Fungicidal Concentration, Candida albicans ATCC 18840” value ([3]; strain ATCC 18840) was 1.25 µg/mL and the “Minimum Fungicidal Concentration, Candida albicans ATCC 26555” value ([3]; strain ATCC 26555) was 1.25 µg/mL. The “Minimum Fungicidal Concentration, Candida albicans ATCC 44808” value ([3]; strain ATCC 44808) was 1.25 µg/mL, the “Minimum Fungicidal Concentration, Candida albicans ATCC 90028” value ([3]; strain ATCC 90028) was 1.25 µg/mL and the “Minimum Fungicidal Concentration, Candida albicans SLU-1” value ([3]; strain SLU-1) was 0.63 µg/mL. For the same molecule, the “Anti-fungal activity: pmol/30 mm^2 zone, Candida albicans” value (Candida albicans) was 11 pmol/30 mm^2 zone.
For H-KSKVGWLIQLFHKK-NH2 [XMP.13], the “Activity in Serum t ½ (hr.)” value [4] was “indefinite” and the “Anti-fungal activity: pmol/30 mm^2 zone, Candida albicans” value (Candida albicans) was 2,233 pmol/30 mm^2 zone.
For H-SKVKWLIQLFHKK-NH2 [XMP.284], the “Minimum Fungicidal Concentration, Trychophyton rubrum ATCC 28188” value ([1]; ATCC 28188) was 5.0 µg/mL, the “protection against infection, survival compared with PBS controls” value (Candida albicans SLU-1) was “provided protection” and the half-life at 0.5 mg/mL [5] was 14.6 h. The “Activity on various strains of C. albicans, IC50, 10231” value ([2]; SLU-1 and other strains) was 1.86 µg/mL, the “Activity on various strains of C. albicans, IC50, 14053” value ([2]; SLU-1 and other strains) was 0.50 µg/mL and the “Activity on various strains of C. albicans, IC50, 26555” value ([2]; SLU-1 and other strains) was 0.59 µg/mL. For the same molecule, the “Activity on various strains of C. albicans, IC50, 90028” value ([2]; SLU-1 and other strains) was 1.08 µg/mL, the “Activity on various strains of C. albicans, IC50, SLU#1” value ([2]; SLU-1 and other strains) was 0.31 µg/mL and the “Minimum Fungicidal Concentration, Candida albicans ATCC 10231” value ([3]; SLU-1 and ATCC strains) was 5.0 µg/mL. For the same molecule, the “Minimum Fungicidal Concentration, Candida albicans ATCC 18840” value ([3]; SLU-1 and ATCC strains) was 2.5 µg/mL, the “Minimum Fungicidal Concentration, Candida albicans ATCC 26555” value ([3]; SLU-1 and ATCC strains) was 1.25 µg/mL and the “Minimum Fungicidal Concentration, Candida albicans ATCC 44808” value ([3]; SLU-1 and ATCC strains) was 1.25 µg/mL. The “Minimum Fungicidal Concentration, Candida albicans ATCC 90028” value ([3]; SLU-1 and ATCC strains) was 1.25 µg/mL, the “Minimum Fungicidal Concentration, Candida albicans SLU-1” value ([3]; SLU-1 and ATCC strains) was 2.50 µg/mL and the “Activity of Peptides on Crytococcus Neoformans 13690, IC50” value [6] was 0.11 µg/mL.
